Laboratory results as given in the NIST ThermoML archive (doi:10.1016/j.jct.2009.07.011).
± gives the expanded uncertainty stated by the source.

What was measured:
[1] = molar enthalpy of vaporization or sublimation; settings: 298.15 K; Crystal; Static calorimetry
[2] = 298.15 K, Static calorimetry; for molar enthalpy of sublimation: Crystal

## Oc1cccc(F)c1F [2,3-Difluorophenol]
[1]
  molar enthalpy: 68.2 ± 3 kJ/mol

## Oc1ccc(F)cc1F [2,4-Difluorophenol]
[2]; Liquid
  molar enthalpy of vaporization: 58.8 ± 1.8 kJ/mol

## Oc1cc(F)ccc1F [2,5-Difluorophenol]
[1]
  molar enthalpy: 68 ± 2.8 kJ/mol

## Oc1c(F)cccc1F [2,6-difluorophenol]
[1]
  molar enthalpy: 77.8 ± 3.8 kJ/mol

## Oc1ccc(F)c(F)c1 [3,4-Difluorophenol]
[2]
  molar enthalpy of sublimation: 72.9 ± 3 kJ/mol

## Oc1cc(F)cc(F)c1 [3,5-Difluorophenol]
[2]
  molar enthalpy of sublimation: 72.8 ± 4.4 kJ/mol
